Measurements taken from patent publication US8183262B2, “Pyridine derivatives as mGluR2 antagonists” (Hoffmann-La Roche Inc., priority 2007, dated 2012).

Q: For `Cc1cc(-c2cc(C(F)(F)F)nc(-n3cnc(-c4cccc(S(N)(=O)=O)c4)c3)n2)ccc1C(F)(F)F` [Example 213, 3-{1-[4-(3-Methyl-4-trifluoromethyl-phenyl)-6-trifluoromethyl-pyrimidin-2-yl]-1H-imidazol-4-yl}-benzenesulfonamide], which melting point is on record?
A: 180 °C

Q: With `Cc1cc(-c2ccc(Cl)c(Cl)c2)nc(-n2cnc(-c3cccc(S(C)(=O)=O)c3)c2)n1` [Example 214, 4-(3,4-Dichloro-phenyl)-2-[4-(3-methanesulfonyl-phenyl)-imidazol-1-yl]-6-methyl-pyrimidine] as the compound, how does the melting point read?
A: 213 °C

Q: Which melting point does the source give for `NS(=O)(=O)c1cccc(-c2cn(-c3nc(-c4ccc(Cl)c(Cl)c4)cc(C(F)(F)F)n3)cn2)c1` [Example 215, 3-{1-[4-(3,4-Dichloro-phenyl)-6-trifluoromethyl-pyrimidin-2-yl]-1H-imidazol-4-yl}-benzenesulfonamide] here?
A: 239 °C

Q: With `Cc1cc(-c2ccc(Cl)c(Cl)c2)nc(-n2cnc(-c3ccc(S(N)(=O)=O)s3)c2)n1` [Example 216, 5-{1-[4-(3,4-Dichloro-phenyl)-6-methyl-pyrimidin-2-yl]-1H-imidazol-4-yl}-thiophene-2-sulfonic acid amide] as the compound, how does the melting point read?
A: 253.5 °C

Q: With `CS(=O)(=O)c1cccc(-c2cn(-c3nc(-c4ccc(C(F)(F)F)cc4)cc(C(F)(F)F)n3)cn2)c1` [Example 217, 2-[4-(3-Methanesulfonyl-phenyl)-imidazol-1-yl]-4-trifluoromethyl-6-(4-trifluoromethyl-phenyl)-pyrimidine] as the compound, how does the melting point read?
A: 231 °C

Q: With `CS(=O)(=O)c1cccc(-c2cccc(-c3nc(-c4ccc(C(F)(F)F)cc4)cc(C(F)(F)F)n3)c2)c1` [Example 219, 2-(3′-Methanesulfonyl-biphenyl-3-yl)-4-trifluoromethyl-6-(4-trifluoromethyl-phenyl)-pyrimidine] as the compound, how does the melting point read?
A: 183.5 °C

Q: For `Nc1cccc(-c2cccc(-c3nc(-c4ccc(C(F)(F)F)cc4)cc(C(F)(F)F)n3)c2)c1` [Example 220, 3′-[4-Trifluoromethyl-6-(4-trifluoromethyl-phenyl)-pyrimidin-2-yl]-biphenyl-3-ylamine], which melting point is on record?
A: 156.5 °C

Q: Which melting point does the source give for `Cc1cc(-c2ccc(Cl)c(C)c2)nc(-n2cnc(-c3cccc(S(N)(=O)=O)c3)c2)n1` [Example 224, 3-{1-[4-(4-Chloro-3-methyl-phenyl)-6-methyl-pyrimidin-2-yl]-1H-imidazol-4-yl}-benzenesulfonamide] here?
A: 219 °C (dec.)

Q: Which melting point does the source give for `Cc1cc(-c2ccc(Cl)c(C)c2)nc(-n2cnc(-c3ccc(S(N)(=O)=O)s3)c2)n1` [Example 225, 5-{1-[4-(4-Chloro-3-methyl-phenyl)-6-methyl-pyrimidin-2-yl]-1H-imidazol-4-yl}-thiophene-2-sulfonic acid amide] here?
A: 267 °C (dec.)

Q: With `Cc1cc(-c2ccc(Cl)c(C)c2)nc(-n2cnc(-c3ccc(N)nc3)c2)n1` [Example 226, 5-{1-[4-(4-Chloro-3-methyl-phenyl)-6-methyl-pyrimidin-2-yl]-1H-imidazol-4-yl}-pyridin-2-ylamine] as the compound, how does the melting point read?
A: 202 °C (dec.)

Q: With `Cc1cc(-c2ccc(Cl)cc2)cc(-c2cccc(-c3ccc(N)nc3)c2)n1` [Example 229, 5-{3-[4-(4-Chloro-phenyl)-6-methyl-pyridin-2-yl]-phenyl}-pyridin-2-ylamine] as the compound, how does the melting point read?
A: 76 to 95 °C

Q: For `Cc1cc(-c2ccc(C(F)(F)F)cc2)cc(-c2nc(-c3ccc(N)nc3)cs2)n1` [Example 230, 5-{2-[6-Methyl-4-(4-trifluoromethyl-phenyl)-pyridin-2-yl]-thiazol-4-yl}-pyridin-2-ylamine], which melting point is on record?
A: 191 °C

Q: With `Cc1cc(-c2ccc(C(F)(F)F)cc2)cc(-c2nc(-c3cnc(N)nc3)cs2)n1` [Example 231, 5-{2-[6-Methyl-4-(4-trifluoromethyl-phenyl)-pyridin-2-yl]-thiazol-4-yl}-pyrimidin-2-ylamine] as the compound, how does the melting point read?
A: > 250 °C

Q: Which melting point does the source give for `Nc1ccc(-c2cccc(-c3cc(-c4ccc(C(F)(F)F)cc4)cc(C(F)(F)F)n3)c2)cn1` [Example 232, 5-{3-[6-Trifluoromethyl-4-(4-trifluoromethyl-phenyl)-pyridin-2-yl]-phenyl}-pyridin-2-ylamine] here?
A: 166 °C

Q: With `Nc1ncc(-c2cccc(-c3cc(-c4ccc(C(F)(F)F)cc4)cc(C(F)(F)F)n3)c2)cn1` [Example 233, 5-{3-[6-Trifluoromethyl-4-(4-trifluoromethyl-phenyl)-pyridin-2-yl]-phenyl}-pyrimidin-2-ylamine] as the compound, how does the melting point read?
A: 260 °C

Q: With `Nc1ncc(-c2cccc(-c3cc(-c4ccc(Cl)cc4)cc(C(F)(F)F)n3)c2)cn1` [Example 234, 5-{3-[4-(4-Chloro-phenyl)-6-trifluoromethyl-pyridin-2-yl]-phenyl}-pyrimidin-2-ylamine] as the compound, how does the melting point read?
A: 239 °C

Q: For `Nc1ccc(-c2cccc(-c3cc(-c4ccc(Cl)cc4)cc(C(F)(F)F)n3)c2)cn1` [Example 235, 5-{3-[4-(4-Chloro-phenyl)-6-trifluoromethyl-pyridin-2-yl]-phenyl}-pyridin-2-ylamine], which melting point is on record?
A: 172 °C

Q: With `Cc1cc(-c2ccc(C(F)(F)F)cc2)cc(-c2nc(-c3ccc(N)nc3)no2)n1` [Example 236, 5-{5-[6-Methyl-4-(4-trifluoromethyl-phenyl)-pyridin-2-yl]-[1,2,4]oxadiazol-3-yl}-pyridin-2-ylamine] as the compound, how does the melting point read?
A: 163 °C

Q: Which melting point does the source give for `Nc1ccc(-c2noc(-c3cc(C(F)(F)F)cc(-c4ccc(C(F)(F)F)cc4)n3)n2)cn1` [Example 238, 5-{5-[4-Trifluoromethyl-6-(4-trifluoromethyl-phenyl)-pyridin-2-yl]-[1,2,4]oxadiazol-3-yl}-pyridin-2-ylamine] here?
A: 229 °C

Q: For `Cc1cc(-c2ccc(C(F)(F)F)cc2)cc(-c2ccnc(-c3ccc(N)nc3)n2)n1` [Example 239, 5-{4-[6-Methyl-4-(4-trifluoromethyl-phenyl)-pyridin-2-yl]-pyrimidin-2-yl}-pyridin-2-ylamine], which melting point is on record?
A: 191 °C

Q: With `Cc1cc(-c2ccc(C(F)(F)F)cc2)cc(-c2ccnc(-c3cnc(N)nc3)n2)n1` [Example 240, 4-[6-Methyl-4-(4-trifluoromethyl-phenyl)-pyridin-2-yl]-[2,5′]bipyrimidinyl-2′-ylamine] as the compound, how does the melting point read?
A: 264 °C

Q: For `Cc1cc(-c2ccc(C(F)(F)F)cc2)cc(-c2nccc(-c3ccc(N)nc3)n2)n1` [Example 241, 5-{2-[6-Methyl-4-(4-trifluoromethyl-phenyl)-pyridin-2-yl]-pyrimidin-4-yl}-pyridin-2-ylamine], which melting point is on record?
A: 258 °C

Q: For `Cc1cc(-c2ccc(Cl)c(Cl)c2)cc(-n2cnc(-c3ccc(N)nc3)c2)n1` [Example 246, 5-{1-[4-(3,4-Dichloro-phenyl)-6-methyl-pyridin-2-yl]-1H-imidazol-4-yl}-pyridin-2-ylamine], which melting point is on record?
A: 245 °C

Q: For `Cc1cc(-c2ccc(C(F)(F)F)cc2)cc(-c2cccc(-c3cncc(S(N)(=O)=O)c3)c2)n1` [Example 248, 5-{3-[6-Methyl-4-(4-trifluoromethyl-phenyl)-pyridin-2-yl]-phenyl}-pyridine-3-sulfonic acid amide], which melting point is on record?
A: > 250 °C

Q: For `Cc1cc(-c2ccc(Cl)c(Cl)c2)cc(-c2cccc(-c3cnc(N)nc3)c2)n1` [Example 250, 5-{3-[4-(3,4-Dichloro-phenyl)-6-methyl-pyridin-2-yl]-phenyl}-pyrimidin-2-ylamine], which melting point is on record?
A: 188 °C

Q: For `Cc1cc(-c2ccc(C(F)(F)F)cc2)cc(-c2nccs2)n1` [Example 251, 2-Methyl-6-thiazol-2-yl-4-(4-trifluoromethyl-phenyl)-pyridine], which melting point is on record?
A: 103 °C

Q: Which melting point does the source give for `Cc1cc(-c2ccc(C(F)(F)F)cc2)cc(-c2ccc(-c3ccc(N)nc3)s2)n1` [Example 252, 5-{5-[6-Methyl-4-(4-trifluoromethyl-phenyl)-pyridin-2-yl]-thiophen-2-yl}-pyridin-2-ylamine] here?
A: 196 °C

Q: For `Cc1cc(-c2ccc(C(F)(F)F)cc2)cc(-c2ccc(-c3cnc(N)nc3)s2)n1` [Example 253, 5-{5-[6-Methyl-4-(4-trifluoromethyl-phenyl)-pyridin-2-yl]-thiophen-2-yl}-pyrimidin-2-ylamine], which melting point is on record?
A: > 250 °C

Q: With `Cc1cc(-c2ccc(Cl)c(Cl)c2)cc(-c2ccc(N3C=CC=CC3N)s2)n1` (stereo not drawn) [Example 254, 1-{5-[4-(3,4-Dichloro-phenyl)-6-methyl-pyridin-2-yl]-thiophen-2-yl}-pyridin-2-ylamine] as the compound, how does the melting point read?
A: 180 °C

Q: Which melting point does the source give for `Cc1cc(-c2ccc(Cl)c(Cl)c2)cc(-c2ccc(-c3cnc(N)nc3)s2)n1` [Example 255, 5-{5-[4-(3,4-Dichloro-phenyl)-6-methyl-pyridin-2-yl]-thiophen-2-yl}-pyrimidin-2-ylamine] here?
A: 237 °C

Q: For `Cc1cc(-c2ccc(C(F)(F)F)cc2)cc(-c2cc(-c3ccc(N)nc3)cs2)n1` [Example 256, 5-{5-[6-Methyl-4-(4-trifluoromethyl-phenyl)-pyridin-2-yl]-thiophen-3-yl}-pyridin-2-ylamine], which melting point is on record?
A: 175 °C

Q: For `Cc1cc(-c2ccc(C(F)(F)F)cc2)cc(-c2cccc(-c3cncc(S(=O)(=O)NC(C)(C)CO)c3)c2)n1` [Example 257, 5-{3-[6-Methyl-4-(4-trifluoromethyl-phenyl)-pyridin-2-yl]-phenyl}-pyridine-3-sulfonic acid (2-hydroxy-1,1-dimethyl-ethyl)-amide], which melting point is on record?
A: 105 °C (dec.)

Q: For `CONS(=O)(=O)c1cccc(-c2cccc(-c3cc(-c4ccc(C(F)(F)F)cc4)cc(C)n3)c2)c1` [Example 258, 3′-[6-Methyl-4-(4-trifluoromethyl-phenyl)-pyridin-2-yl]-biphenyl-3-sulfonic acid methoxy-amide], which melting point is on record?
A: 181 °C

Q: For `CCc1cc(-c2ccc(C(F)(F)F)cc2)cc(-c2cccc(-c3cnc(N)nc3)c2)n1` [Example 260, 5-{3-[6-Ethyl-4-(4-trifluoromethyl-phenyl)-pyridin-2-yl]-phenyl}-pyrimidin-2-ylamine], which melting point is on record?
A: 209 °C

Q: With `Cc1cc(-c2ccc(C(F)(F)F)cc2)cc(-c2cccc(-c3cccc(S(=O)(=O)NC(C)(C)C)c3)n2)n1` [Example 261, N-tert-Butyl-3-[6′-methyl-4′-(4-trifluoromethyl-phenyl)-[2,2′]bipyridinyl-6-yl]-benzenesulfonamide] as the compound, how does the melting point read?
A: 183 °C

Q: Which melting point does the source give for `Cc1cc(-c2ccc(C(F)(F)F)cc2)cc(-c2ccnc(-c3cccc(S(=O)(=O)NC(C)(C)C)c3)n2)n1` [Example 262, N-tert-Butyl-3-{4-[6-methyl-4-(4-trifluoromethyl-phenyl)-pyridin-2-yl]-pyrimidin-2-yl}-benzenesulfonamide] here?
A: 218 °C
